The target in experiment [1] is T1, AHR (Homo sapiens, UniProt P35869).
T1 construct: U87 MG glioblastoma cells (ATCC #HTB-14) endogenously expressing AHR; endogenous in cells; host or cells: U87 MG glioblastoma cells (ATCC #HTB-14)
T1 sequence (P35869 11-848): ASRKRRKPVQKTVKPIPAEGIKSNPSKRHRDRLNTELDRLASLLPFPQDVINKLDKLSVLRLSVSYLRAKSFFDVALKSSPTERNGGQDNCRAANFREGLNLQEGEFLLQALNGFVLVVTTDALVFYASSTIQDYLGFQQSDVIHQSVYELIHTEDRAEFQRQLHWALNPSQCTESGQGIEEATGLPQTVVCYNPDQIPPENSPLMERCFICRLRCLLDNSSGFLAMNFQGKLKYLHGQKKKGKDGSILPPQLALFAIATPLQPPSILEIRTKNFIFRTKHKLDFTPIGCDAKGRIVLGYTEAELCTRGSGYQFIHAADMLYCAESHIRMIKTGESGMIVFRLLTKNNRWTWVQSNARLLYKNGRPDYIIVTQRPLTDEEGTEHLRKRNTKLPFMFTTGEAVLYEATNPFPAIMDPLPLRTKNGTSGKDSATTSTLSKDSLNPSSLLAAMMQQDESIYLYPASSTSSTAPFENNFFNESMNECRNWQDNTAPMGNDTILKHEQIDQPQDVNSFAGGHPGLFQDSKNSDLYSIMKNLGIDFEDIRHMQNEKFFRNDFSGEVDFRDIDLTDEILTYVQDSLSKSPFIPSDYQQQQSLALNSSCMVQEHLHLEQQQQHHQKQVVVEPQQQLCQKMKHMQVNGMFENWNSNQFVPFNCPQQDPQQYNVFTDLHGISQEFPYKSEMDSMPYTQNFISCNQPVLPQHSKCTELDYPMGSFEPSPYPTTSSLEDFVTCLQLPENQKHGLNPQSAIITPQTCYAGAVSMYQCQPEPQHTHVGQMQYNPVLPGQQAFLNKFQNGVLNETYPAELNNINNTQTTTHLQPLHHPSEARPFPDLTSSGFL
The experiment in a line: In vitro assay 1: antagonism in human cell line (AHR transactivation, firefly luciferase reporter, kynurenic acid prestimulated). Format: cell-based. To be noted: AHR Antagonism Human IC50 [M]. In a few lines: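 U87 MG glioblastoma cells with endogenous AHR, stably carrying a DRE-driven firefly luciferase reporter and constitutive Renilla reporter, prestimulated with kynurenic acid before compound addition. Firefly and Renilla read by dual luciferase; Renilla flags toxicity; normalized to controls (150 μM kynurenic acid + 5 μM staurosporine as full inhibition); repeat values averaged or median.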
(In general: Reporter assays use an easily measured gene product as a stand-in for the process of interest.)

Experiment [2] deals with T2, AHR (Mus musculus, UniProt P30561).
T2 sequence (P30561 1-848 P471L/N533S/M589L): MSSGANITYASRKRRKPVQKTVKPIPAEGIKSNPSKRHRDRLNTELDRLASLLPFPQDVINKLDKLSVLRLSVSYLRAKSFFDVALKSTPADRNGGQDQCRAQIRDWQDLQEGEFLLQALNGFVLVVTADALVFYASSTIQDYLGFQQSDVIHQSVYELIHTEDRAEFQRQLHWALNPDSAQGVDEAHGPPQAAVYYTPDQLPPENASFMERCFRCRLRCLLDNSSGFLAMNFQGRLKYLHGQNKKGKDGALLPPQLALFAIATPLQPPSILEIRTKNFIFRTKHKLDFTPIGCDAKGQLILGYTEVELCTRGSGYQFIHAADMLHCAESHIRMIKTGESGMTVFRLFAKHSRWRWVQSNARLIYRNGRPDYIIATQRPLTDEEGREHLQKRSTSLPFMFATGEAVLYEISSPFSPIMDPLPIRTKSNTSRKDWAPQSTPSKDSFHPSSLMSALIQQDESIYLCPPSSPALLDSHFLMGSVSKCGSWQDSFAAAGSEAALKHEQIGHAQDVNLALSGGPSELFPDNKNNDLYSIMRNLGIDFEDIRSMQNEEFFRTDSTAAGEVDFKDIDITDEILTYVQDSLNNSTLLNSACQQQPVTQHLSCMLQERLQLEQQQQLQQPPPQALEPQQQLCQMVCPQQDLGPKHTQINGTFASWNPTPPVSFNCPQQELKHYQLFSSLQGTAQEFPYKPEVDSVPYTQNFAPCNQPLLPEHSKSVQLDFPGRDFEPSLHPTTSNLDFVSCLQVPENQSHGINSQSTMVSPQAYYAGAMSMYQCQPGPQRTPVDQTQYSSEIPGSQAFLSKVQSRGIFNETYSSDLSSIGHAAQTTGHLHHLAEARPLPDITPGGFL
The experiment in a line: In vitro assay 3: antagonism in mouse cell line (AHR transactivation, firefly luciferase reporter, kynurenic acid prestimulated). It is filed as cell-based. In a few lines:
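Mouse cells stably carrying a DRE-driven AHR-inducible firefly luciferase reporter were prestimulated with the endogenous agonist kynurenic acid before compound addition. Luciferase read by SteadyGlo; cells without kynurenic acid served as full-inhibition control, with normalization to positive and negative controls. Repeat tests reported as mean or median.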

Where [3] appears, read: mouse Hepa 1c1c7 cells, 200 μM kynurenic acid, 20 hours, read-out: AHR Antagonism Mouse IC50.
[4] abbreviates: Hepa 1c1c7 cells, 200 μM kynurenic acid, 20 hours, firefly luciferase reporter, read-out: AHR Antagonism Mouse IC50.

Where two headings read alike, the source gives them in different places. Some results are limits rather than exact numbers.

With `O=C1NCCCC[C@H]1Nc1nc2ccccc2c2nc(-c3cnn(C(F)F)c3)nn12` [Example 534, (3R)-3-({2-[1-(difluoromethyl)-1H-pyrazol-4-yl][1,2,4]triazolo[1,5-c]quinazolin-5-yl}amino)azepan-2-one], the IC50 is 2.03e-09 M at AHR [1] and 0.828 nM at AHR [2] (setting [3]).

For the compound `O=C1NCCCC[C@H]1Nc1nc2ccccc2c2nc(-c3cc(F)ccc3OC(F)(F)F)nn12` [Example 492, (3R)-3-({2-[5-fluoro-2-(trifluoromethoxy)phenyl][1,2,4]triazolo[1,5-c]quinazolin-5-yl}amino)azepan-2-one], the results for the half-maximal inhibitory concentration (IC50) on AHR [1] and at AHR [2] (setting [3]) were 2.22e-08 M and 5.71 nM, respectively.

`O=C1NCCNC[C@H]1Nc1nc2cccc(C(F)(F)F)c2c2nc(-c3ccc(F)cc3)nn12` [Example 287, (6R)-6-{[2-(4-fluorophenyl)-10-(trifluoromethyl)[1,2,4]triazolo[1,5-c]quinazolin-5-yl]amino}-1,4-diazepan-5-one]: the IC50 was 6.55e-06 M against AHR [1] and 756 nM on AHR [2] (setting [3]).

For `COc1ccc(-c2nc3c4cccc(OCC(C)(F)F)c4nc(N[C@@H]4CCCCNC4=O)n3n2)cc1` [Example 668, (3R)-3-{[7-(2,2-difluoropropoxy)-2-(4-methoxyphenyl)[1,2,4]triazolo[1,5-c]quinazolin-5-yl]amino}azepan-2-one], the results for the IC50 at AHR [1] and on AHR [2] (setting [3]) were more than 5.71e-06 M and 271 nM, respectively.

On to `CCn1cc(-c2nc3c4cccc(Cl)c4nc(N[C@@H]4CCCCNC4=O)n3n2)cn1` [Example 818, (3R)-3-{[7-chloro-2-(1-ethyl-1H-pyrazol-4-yl)[1,2,4]triazolo[1,5-c]quinazolin-5-yl]amino}azepan-2-one], for which the 50% inhibitory concentration (IC50) against AHR [1] (firefly luciferase reporter) amounted to 6.2e-10 M; at AHR [2] (setting [4]) it was 2.18 nM.

For `COc1ccc(-c2nc3c4cccc(Br)c4nc(N[C@H](C)C(=O)NCCCN(C)C)n3n2)cc1` [Example 809, N^2-[7-bromo-2-(4-methoxyphenyl)[1,2,4]triazolo[1,5-c]quinazolin-5-yl]-N-[3-(dimethylamino)propyl]-D-alaninamide], the 50% inhibitory concentration (IC50) against AHR [1] (firefly luciferase reporter) stood at 1.82e-08 M; at AHR [2] (setting [4]), 9.05 nM.

With `CCCCNC(=O)[C@H](C)Nc1nc2ccccc2c2nc(-c3cccc(C#N)c3)nn12` [Example 441, N-butyl-N^2-[2-(3-cyanophenyl)[1,2,4]triazolo[1,5-c]quinazolin-5-yl]alaninamide], the half-maximal inhibitory concentration (IC50) is 1.36e-07 M at AHR [1] and 29.3 nM at AHR [2] (setting [3]).

As to `Cc1nn(C)cc1-c1nc2c3cccc(C(F)(F)F)c3nc(N[C@@H]3CNCCNC3=O)n2n1` [Example 975, (6R)-6-{[2-(1,3-dimethyl-1H-pyrazol-4-yl)-7-(trifluoromethyl)[1,2,4]triazolo[1,5-c]quinazolin-5-yl]amino}-1,4-diazepan-5-one], the 50% inhibitory concentration (IC50) came out at 8.67e-10 M on AHR [1] (firefly luciferase reporter) and 4.24 nM on AHR [2] (setting [4]).

As for `CC[C@@H](Nc1nc2ccccc2c2nc(-c3cc(Br)ccc3OC(F)(F)F)nn12)C(N)=O` [Example 507, (2R)-2-({2-[5-bromo-2-(trifluoromethoxy)phenyl][1,2,4]triazolo[1,5-c]quinazolin-5-yl}amino)butanamide], the IC50 against AHR [1] is 3.44e-07 M; at AHR [2] (setting [3]), 41.2 nM.

`N#Cc1cccc2c1nc(N[C@@H]1CCCCNC1=O)n1nc(-c3cnn(C4CCC4)c3)nc21` [Example 762, 2-(1-cyclobutyl-1H-pyrazol-4-yl)-5-{[(3R)-2-oxoazepan-3-yl]amino}[1,2,4]triazolo[1,5-c]quinazoline-7-carbonitrile]: the 50% inhibitory concentration (IC50) against AHR [1] was 2.44e-09 M; at AHR [2] (read-out: AHR Antagonism Mouse IC50, mouse Hepa 1c1c7 cells, 200 μM kynurenic acid, 20 hours), 7.01 nM.

Consider `N#Cc1ccc(-c2nc3c4ccccc4nc(N[C@@H]4CCCNC4=O)n3n2)cc1` [Example 389, 4-(5-{[(3R)-2-oxopiperidin-3-yl]amino}[1,2,4]triazolo[1,5-c]quinazolin-2-yl)benzonitrile], for which the half-maximal inhibitory concentration (IC50) worked out at 1.76e-08 M on AHR [1] and 26.7 nM on AHR [2] (setting [3]).

In the case of `O=C1NCCCC[C@H]1Nc1nc2c(C(F)(F)F)cccc2c2nc(-c3cn(C4CC4)nc3C(F)F)nn12` [Example 743, (3R)-3-({2-[1-cyclopropyl-3-(difluoromethyl)-1H-pyrazol-4-yl]-7-(trifluoromethyl)[1,2,4]triazolo[1,5-c]quinazolin-5-yl}amino)azepan-2-one], the results for the IC50 against AHR [1] and at AHR [2] (setting [3]) were 1.26e-09 M and 1.73 nM, respectively.

Regarding `CC(C)S(=O)(=O)c1cccc2c1nc(N[C@@H]1CCCCNC1=O)n1nc(-c3cnn(C)c3)nc21` [Example 845, (3R)-3-{[2-(1-methyl-1H-pyrazol-4-yl)-7-(propane-2-sulfonyl)[1,2,4]triazolo[1,5-c]quinazolin-5-yl]amino}azepan-2-one], the IC50 against AHR [1] (firefly luciferase reporter) was found to be 6.71e-08 M; on AHR [2] (setting [4]), 247 nM.

On to `O=C1NCCCC[C@H]1Nc1nc2c(F)cccc2c2nc(-c3ccncc3)nn12` [Example 552, (3R)-3-{[7-fluoro-2-(pyridin-4-yl)[1,2,4]triazolo[1,5-c]quinazolin-5-yl]amino}azepan-2-one], for which the results for the IC50 against AHR [1] and on AHR [2] (setting [3]) were 1.28e-07 M and 230 nM, respectively.

Turning to `CCn1cc(-c2nc3c4cccc(C(F)(F)F)c4nc(N[C@@H]4CCCCNC4=O)n3n2)cn1` [Example 675, (3R)-3-{[2-(1-ethyl-1H-pyrazol-4-yl)-7-(trifluoromethyl)[1,2,4]triazolo[1,5-c]quinazolin-5-yl]amino}azepan-2-one], the half-maximal inhibitory concentration (IC50) at AHR [1] worked out at 1.22e-09 M; at AHR [2] (setting [3]) it was 2.26 nM.

In the case of `COc1ccc(-c2nc3c4cccc(Br)c4nc(N[C@@H]4CN(C)CCNC4=O)n3n2)cc1` [Example 995, (6R)-6-{[7-bromo-2-(4-methoxyphenyl)[1,2,4]triazolo[1,5-c]quinazolin-5-yl]amino}-1-methyl-1,4-diazepan-5-one], the results for the IC50 at AHR [1] (firefly luciferase reporter) and at AHR [2] (setting [4]) were 6.97e-10 M and 2.11 nM, respectively.

With `C[C@@H](Nc1nc2c(Br)cccc2c2nc(-c3cnn(C)c3)nn12)C(=O)NCCN1CCCCC1` [Example 896, N^2-[7-bromo-2-(1-methyl-1H-pyrazol-4-yl)[1,2,4]triazolo[1,5-c]quinazolin-5-yl]-N-[2-(piperidin-1-yl)ethyl]-D-alaninamide], the IC50 is 2.72e-07 M against AHR [1] (firefly luciferase reporter) and 133 nM at AHR [2] (setting [4]).

With `COc1cccc(-c2nc3c4ccccc4nc(NC4(C(N)=O)COC4)n3n2)c1` [Example 87, 3-{[2-(3-methoxyphenyl)[1,2,4]triazolo[1,5-c]quinazolin-5-yl]amino}oxetane-3-carboxamide], the values for the IC50 against AHR [1] and on AHR [2] (setting [3]) were 4.85e-07 M and 282 nM, respectively.

As for `COc1ccc(-c2nc3c4ccccc4nc(NC4CNCCNC4=O)n3n2)cc1` (single isomer, unassigned) [Example 36, 6-{[2-(4-methoxyphenyl)[1,2,4]triazolo[1,5-c]quinazolin-5-yl]amino}-1,4-diazepan-5-one], the IC50 against AHR [1] was 8.01e-09 M; at AHR [2] (setting [3]), 29.4 nM.

The IC50 is the concentration that inhibits the measured activity by half.
